Laboratory results reported in ChEMBL document CHEMBL5291721, “A preclinical secondary pharmacology resource illuminates target-adverse drug reaction associations of marketed drugs” (Nat Commun, 2023).

How the values were obtained:
[1] = target: T1, Alpha-2A adrenergic receptor (Homo sapiens, UniProt P08913)
T1 sequence (P08913 whole entry): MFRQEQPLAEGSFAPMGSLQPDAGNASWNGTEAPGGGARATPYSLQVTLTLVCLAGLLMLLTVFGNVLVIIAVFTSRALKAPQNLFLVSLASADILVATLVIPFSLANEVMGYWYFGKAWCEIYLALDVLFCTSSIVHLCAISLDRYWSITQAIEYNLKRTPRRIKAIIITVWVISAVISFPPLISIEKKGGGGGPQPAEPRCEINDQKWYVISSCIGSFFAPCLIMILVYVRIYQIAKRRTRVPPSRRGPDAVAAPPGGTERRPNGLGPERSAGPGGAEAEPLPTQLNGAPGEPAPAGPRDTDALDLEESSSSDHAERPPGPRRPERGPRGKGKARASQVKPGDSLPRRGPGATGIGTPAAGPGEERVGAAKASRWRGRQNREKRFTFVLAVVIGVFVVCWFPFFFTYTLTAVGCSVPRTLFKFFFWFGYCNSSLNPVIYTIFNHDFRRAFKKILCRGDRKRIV

[2] = target: T2, 5-hydroxytryptamine receptor 1A (Homo sapiens, UniProt P08908)
T2 sequence (P08908 whole entry): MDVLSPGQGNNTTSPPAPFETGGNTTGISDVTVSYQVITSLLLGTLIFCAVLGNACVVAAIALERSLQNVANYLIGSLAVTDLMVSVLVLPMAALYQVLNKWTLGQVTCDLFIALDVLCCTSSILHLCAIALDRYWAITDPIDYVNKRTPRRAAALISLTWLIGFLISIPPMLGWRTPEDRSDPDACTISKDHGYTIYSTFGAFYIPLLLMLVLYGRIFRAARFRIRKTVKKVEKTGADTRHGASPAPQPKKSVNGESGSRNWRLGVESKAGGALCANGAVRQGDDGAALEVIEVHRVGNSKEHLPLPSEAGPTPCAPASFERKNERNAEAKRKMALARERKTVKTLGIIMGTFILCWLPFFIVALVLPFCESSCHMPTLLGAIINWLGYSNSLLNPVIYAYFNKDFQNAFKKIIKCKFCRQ

[3] = target: 5-hydroxytryptamine receptor 2B (Homo sapiens, UniProt P41595); type: functional, cell-based
Sequence of 5-hydroxytryptamine receptor 2B (P41595 whole entry): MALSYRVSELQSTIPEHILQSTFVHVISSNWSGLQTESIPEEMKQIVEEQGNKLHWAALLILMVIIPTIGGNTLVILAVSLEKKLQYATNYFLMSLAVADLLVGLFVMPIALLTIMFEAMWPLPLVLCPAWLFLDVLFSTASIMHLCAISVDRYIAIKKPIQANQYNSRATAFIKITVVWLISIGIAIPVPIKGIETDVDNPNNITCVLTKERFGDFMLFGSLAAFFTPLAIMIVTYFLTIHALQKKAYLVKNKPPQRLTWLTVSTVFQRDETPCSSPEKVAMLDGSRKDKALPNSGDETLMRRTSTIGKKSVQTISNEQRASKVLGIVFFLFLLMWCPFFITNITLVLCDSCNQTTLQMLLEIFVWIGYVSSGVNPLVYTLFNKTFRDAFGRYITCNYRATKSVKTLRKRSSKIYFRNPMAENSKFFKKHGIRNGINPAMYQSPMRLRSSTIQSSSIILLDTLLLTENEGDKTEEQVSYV

[4] = target: Sodium-dependent noradrenaline transporter (Homo sapiens, UniProt P23975)
Sequence of Sodium-dependent noradrenaline transporter (P23975 whole entry): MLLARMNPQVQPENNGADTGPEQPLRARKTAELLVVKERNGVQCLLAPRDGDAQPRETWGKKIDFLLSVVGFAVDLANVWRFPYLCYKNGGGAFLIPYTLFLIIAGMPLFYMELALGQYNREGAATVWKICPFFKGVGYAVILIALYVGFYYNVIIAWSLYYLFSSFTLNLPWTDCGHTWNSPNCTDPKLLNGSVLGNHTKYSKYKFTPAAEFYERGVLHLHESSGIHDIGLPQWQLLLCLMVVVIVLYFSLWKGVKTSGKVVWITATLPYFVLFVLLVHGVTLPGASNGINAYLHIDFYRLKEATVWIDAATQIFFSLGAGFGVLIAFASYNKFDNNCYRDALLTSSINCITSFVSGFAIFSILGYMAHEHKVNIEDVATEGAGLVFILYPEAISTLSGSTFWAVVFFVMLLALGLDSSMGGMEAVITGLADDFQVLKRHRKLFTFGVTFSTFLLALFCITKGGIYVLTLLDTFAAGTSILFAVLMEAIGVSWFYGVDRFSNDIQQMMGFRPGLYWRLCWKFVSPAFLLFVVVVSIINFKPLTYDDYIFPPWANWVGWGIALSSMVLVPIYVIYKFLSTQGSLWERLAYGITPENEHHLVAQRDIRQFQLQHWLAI

[5] = target: Sodium-dependent dopamine transporter (Homo sapiens, UniProt Q01959)
Sequence of Sodium-dependent dopamine transporter (Q01959 whole entry): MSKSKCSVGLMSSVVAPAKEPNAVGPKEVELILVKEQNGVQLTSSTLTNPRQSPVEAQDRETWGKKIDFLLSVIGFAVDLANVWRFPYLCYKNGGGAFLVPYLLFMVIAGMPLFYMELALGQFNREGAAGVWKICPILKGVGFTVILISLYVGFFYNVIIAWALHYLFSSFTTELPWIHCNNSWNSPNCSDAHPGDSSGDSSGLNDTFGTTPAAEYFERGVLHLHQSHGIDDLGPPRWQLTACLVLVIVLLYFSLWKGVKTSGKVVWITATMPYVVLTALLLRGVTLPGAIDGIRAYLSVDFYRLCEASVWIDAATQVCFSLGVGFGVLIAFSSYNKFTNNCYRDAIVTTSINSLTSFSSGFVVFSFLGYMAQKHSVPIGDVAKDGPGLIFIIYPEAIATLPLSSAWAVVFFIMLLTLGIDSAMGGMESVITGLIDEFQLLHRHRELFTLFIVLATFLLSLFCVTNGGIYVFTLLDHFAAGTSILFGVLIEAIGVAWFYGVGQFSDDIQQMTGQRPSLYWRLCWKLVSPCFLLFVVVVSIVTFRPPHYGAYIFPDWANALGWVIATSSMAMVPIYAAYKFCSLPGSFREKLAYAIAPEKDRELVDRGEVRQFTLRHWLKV

Thromboxane A2 receptor = target: T3, Thromboxane A2 receptor (Homo sapiens, UniProt P21731); type: functional, cell-based
T3 sequence (P21731 whole entry): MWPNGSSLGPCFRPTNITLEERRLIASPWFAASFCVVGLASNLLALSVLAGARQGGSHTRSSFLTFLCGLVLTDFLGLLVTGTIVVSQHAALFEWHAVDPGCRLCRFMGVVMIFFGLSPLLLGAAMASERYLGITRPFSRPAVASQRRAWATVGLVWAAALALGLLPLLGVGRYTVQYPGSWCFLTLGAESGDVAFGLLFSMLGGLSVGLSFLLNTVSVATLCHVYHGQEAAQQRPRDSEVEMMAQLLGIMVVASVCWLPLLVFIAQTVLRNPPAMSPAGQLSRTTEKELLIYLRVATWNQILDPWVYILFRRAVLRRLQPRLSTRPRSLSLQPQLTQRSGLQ
Note: assay procedure not described here.

SMILES: CC[C@H](c1ccc(O)cc1)[C@@H](CC)c1ccc(O)cc1 [HEXESTROL]
- AC50 [1]: > 30 µM
- AC50 [2]: > 30 µM
- AC50 [3]: > 30 µM
- AC50 [4]: 8.77 µM
- AC50 [5]: 3.31 µM
- AC50 (Thromboxane A2 receptor): 21 µM

SMILES: CNC(=O)Oc1cccc2ccccc12 [CARBARIL]
- AC50 [1]: > 30 µM
- AC50 [2]: > 30 µM
- AC50 [3]: > 30 µM
- AC50 [4]: > 30 µM
- AC50 [5]: > 30 µM
- AC50 (Thromboxane A2 receptor): > 30 µM

SMILES: CC(C)OC(=O)CCC/C=C\C[C@@H]1[C@@H](/C=C/C(F)(F)COc2ccccc2)[C@H](O)C[C@@H]1O [TAFLUPROST]
- AC50 [1]: > 30 µM
- AC50 [2]: > 30 µM
- AC50 [3]: > 30 µM
- AC50 [4]: > 30 µM
- AC50 [5]: > 30 µM
- AC50 (Thromboxane A2 receptor): > 30 µM

SMILES: C[C@H]1O[C@@H](n2cc(F)c(=O)[nH]c2=O)[C@H](O)[C@@H]1O [DOXIFLURIDINE]
- AC50 [1]: > 30 µM
- AC50 [2]: > 30 µM
- AC50 [3]: > 30 µM
- AC50 [4]: > 30 µM
- AC50 [5]: > 30 µM
- AC50 (Thromboxane A2 receptor): > 30 µM

SMILES: O=C(O)COc1ccc(C(=O)c2cccs2)c(Cl)c1Cl
- AC50 [1]: > 30 µM
- AC50 [2]: > 30 µM
- AC50 [3]: > 30 µM
- AC50 [4]: > 30 µM
- AC50 [5]: > 30 µM
- AC50 (Thromboxane A2 receptor): > 30 µM

SMILES: C[C@@H]1C[C@H]2[C@@H]3CCC4=CC(=O)C=C[C@]4(C)[C@@]3(Cl)[C@@H](O)C[C@]2(C)[C@@]1(OC(=O)c1ccco1)C(=O)CCl [MOMETASONE FUROATE]
- AC50 [1]: > 30 µM
- AC50 [2]: > 30 µM
- AC50 [3]: > 30 µM
- AC50 [4]: > 30 µM
- AC50 [5]: > 30 µM
- AC50 (Thromboxane A2 receptor): > 30 µM

SMILES: OC[C@H]1O[C@@H](c2ccc(Cl)c(Cc3ccc(O[C@H]4CCOC4)cc3)c2)[C@H](O)[C@@H](O)[C@@H]1O [EMPAGLIFLOZIN]
- AC50 [1]: > 30 µM
- AC50 [2]: > 30 µM
- AC50 [3]: > 30 µM
- AC50 [4]: > 30 µM
- AC50 [5]: > 30 µM
- AC50 (Thromboxane A2 receptor): > 30 µM

SMILES: CC(C)C[C@H](NC(=O)CNC(=O)c1cc(Cl)ccc1Cl)B(O)O [IXAZOMIB]
- AC50 [1]: > 30 µM
- AC50 [2]: > 30 µM
- AC50 [3]: > 30 µM
- AC50 [4]: > 30 µM
- AC50 [5]: > 30 µM
- AC50 (Thromboxane A2 receptor): > 30 µM

SMILES: CC[C@@]1(O)C(=O)OCc2c1cc1n(c2=O)Cc2cc3c([N+](=O)[O-])cccc3nc2-1 [RUBITECAN]
- AC50 [1]: > 30 µM
- AC50 [2]: > 30 µM
- AC50 [3]: > 30 µM
- AC50 [4]: > 30 µM
- AC50 [5]: > 30 µM
- AC50 (Thromboxane A2 receptor): > 30 µM

SMILES: CCn1cc(C(=O)O)c(=O)c2cc3c(cc21)OCO3 [OXOLINIC ACID]
- AC50 [1]: > 30 µM
- AC50 [2]: > 30 µM
- AC50 [3]: > 30 µM
- AC50 [4]: > 30 µM
- AC50 [5]: > 30 µM
- AC50 (Thromboxane A2 receptor): > 30 µM

SMILES: OC[C@@H](O)[C@@H](O)[C@H](O)[C@@H](O)CO [SORBITOL]
- AC50 [1]: > 30 µM
- AC50 [2]: > 30 µM
- AC50 [3]: > 30 µM
- AC50 [4]: > 30 µM
- AC50 [5]: > 30 µM
- AC50 (Thromboxane A2 receptor): > 30 µM

SMILES: FC(F)(F)c1ccc(CNc2ccc(Cc3c[nH]c4ncc(Cl)cc34)cn2)cn1 [PEXIDARTINIB]
- AC50 [1]: 17.1 µM
- AC50 [2]: 0.627 µM
- AC50 [3]: > 30 µM
- AC50 [4]: 3.96 µM
- AC50 [5]: 9.3 µM
- AC50 (Thromboxane A2 receptor): > 30 µM

SMILES: CN(C)[C@@H]1C(O)=C(C(N)=O)C(=O)[C@@]2(O)C(O)=C3C(=O)c4c(O)ccc(Cl)c4[C@@](C)(O)[C@H]3C[C@@H]12 [CHLORTETRACYCLINE]
- AC50 [1]: > 30 µM
- AC50 [2]: > 30 µM
- AC50 [3]: > 30 µM
- AC50 [4]: > 30 µM
- AC50 [5]: > 30 µM
- AC50 (Thromboxane A2 receptor): > 30 µM

SMILES: N[C@@H](CO)C(=O)O [SERINE]
- AC50 [1]: > 30 µM
- AC50 [2]: > 30 µM
- AC50 [3]: > 30 µM
- AC50 [4]: > 30 µM
- AC50 [5]: > 30 µM
- AC50 (Thromboxane A2 receptor): > 30 µM

SMILES: CCOC(=O)c1c(C)cc2c(CO)n[nH]c(=O)c2c1C [OXAGRELATE]
- AC50 [1]: > 30 µM
- AC50 [2]: > 30 µM
- AC50 [3]: > 30 µM
- AC50 [4]: > 30 µM
- AC50 [5]: > 30 µM
- AC50 (Thromboxane A2 receptor): > 30 µM

SMILES: CN1CCCCC1CCN1c2ccccc2Sc2ccc([S+](C)[O-])cc21 (stereo unspecified) [MESORIDAZINE]
- AC50 [1]: 2.59 µM
- AC50 [2]: 0.214 µM
- AC50 [3]: > 30 µM
- AC50 [4]: 28.8 µM
- AC50 [5]: 19.8 µM
- AC50 (Thromboxane A2 receptor): > 30 µM
